Source: patent publication US10080366B2, “Agent for increasing sugar content in fruit” (RIKEN, priority 2012, dated 2018)
Where two headings read alike, the source gives them in different places.

Key:
[1] = tested on: harvested fruit of grape (variety: Barikan); conditions: for Sugar content (%) on date of application (Jun. 2): before application
Procedure: The fruit of grape was maintained in an air-conditioned greenhouse (temperature: 25° C.), and measured for the mass over time. The sugar content of the fruit was measured before the application and 8 days after the application with a sugar content meter. Next, on the assumption that the change in the mass of the fruit was entirely due to the change in water content, calculated values of the amount of decrease in mass and the sugar content on the date (June 2) of the application were determined […] by using the following calculation formula. (Calculated as follows: the sugar content (%) calculated value))=the sugar content (%) before application×the mass (g) on the date of application/the mass (g) on the date of measurement))

[2] = tested on: fruit of grape (variety: Red Globe)
Procedure: An agent for increasing a sugar content in a fruit (containing Sorbon T-20 as a spreader/sticker at a final concentration of 200 μL/L) diluted with water to have a potassium hydrogen carbonate concentration of 10 g/L was prepared. The mass of fruit of grape (variety: Red Globe) purchased on the market was measured. Then, the prepared agent for increasing a sugar content in a fruit was applied by spraying to the fruit of grape. Then, the fruit of grape was allowed to stand in an air-conditioned greenhouse (temperature: 25° C.), and the mass was measured over time (date of application: Apr. 27, 2011; dates of test: May 2, 2011, May 6, 2011, May 9, 2011, May 11, 2011, May 13, 2011, and May 16, 2011). In addition, as a control, the mass of untreated grape was measured on each date of measurement in the same manner.
On the basis of the measured mass, the estimated amount (cumulative value) of transpiration and the estimated amount of transpiration per day were calculated. The results are shown in Tables 5 and 6 and FIGS. 10 and 11.
Note that the vertical axis in FIG. 10 represents the mass (g) of the fruit of grape on each of the dates of measurement per 100 g of the fruit of grape on the date of application, and the vertical axis in FIG. 11 represents the estimated amount (g) of transpiration on each of the dates of measurement per 100 g of the fruit of grape on the date of application. The estimated amount (g) of transpiration on each of the dates of measurement per 100 g of the fruit of grape on the date of application=(the mass (g) of the fruit of grape on the date of application−the mass (g) of the fruit of grape on the date of measurement)/the mass of the fruit of grape on the date of application×100

Pinot noir = experiment: Acceptability of fruit for wine (Example 11); type: in vivo, grape; conditions: Example 1 sample
Description: As in the case where agriculture workers check whether or not a berry can be used for wine, the criteria of the acceptability were based the appearance (appearance associated with mold, rot, or the like, whether or not the fruit juice or fruit pulp was lost, and the like), taste (whether or not the berry was normal, when eaten, and the like), and odor (whether or not a foreign odor or the like was present). A berry having no problem in terms of any of the appearance, taste, and odor was determined to be acceptable, and a berry having any problem was determined to be not acceptable.

Celery = conditions: 10 g/L aqueous solution at intervals of one week; browning index 0-5, five plants
Description: (§1) In general, calcium deficiency in lettuce and celery occurs from summer to fall. Heart rot symptom develops in lettuce, and change in color and blackening of new leaves develop in celery. In addition, tipburn may also occur in lettuce. A 10 g/L aqueous potassium hydrogen carbonate solution was applied at intervals of one week to lettuce and celery in which no symptom of calcium deficiency had yet developed, and whether or not the symptom became milder than that of an untreated group was observed. Five plants were subjected to each treatment, and the degree of the symptom of calcium deficiency was determined on the basis of the degree of browning of leaves at the harvest.
(§2) 0: no browning, 0.5: browning occurred only in very small portions on the edges of leaves, 1.0: browning occurred in portions on the edges of […], 2.0: browning occurred from edges of leaves to the inside, 3.0: the degree of browning was considerable, 5.0: the browning of leaves was remarkable. Degree of occurrence=(Index 5×the number of plants in which the corresponding blowing occurred+Index 3×the number of plants in which the corresponding blowing occurred+Index 2×the number of plants in which the corresponding blowing occurred+Index 1×the number of plants in which the corresponding blowing occurred+Index 0.5×the number of plants in which the corresponding blowing occurred)/5 plants

Lettuce (Great Lakes) = conditions: 10 g/L aqueous solution at intervals of one week; browning index 0-5, five plants
Description: as §1, §2

Cherry (Sato Nishiki) = conditions: 10 g/L, three times at intervals of one week; harvested four weeks later
Procedure: (§3) To each of the plants shown in Table 15 below, an aqueous potassium hydrogen carbonate solution (10 g/L) was applied three times at intervals of one week about one month before the harvest time. Each of the plants was harvested four weeks later. The degree of the fruit cracking of the fruit was compared with that of untreated fruit, and a fruit cracking-suppression ratio was determined. […] The fruit cracking ratio (%)=the number of pieces of the fruit which underwent fruit cracking/the total number of pieces of the fruit×100 The fruit cracking-suppression ratio (%)=(1−the fruit cracking ratio (%) of a treated group/the fruit cracking ratio (%) of an untreated group)×100

[3] = tested on: Grape (Nagano Purple), Grape (Riesling); conditions: 10 g/L, three times at intervals of one week
Procedure: as §3

Tomato (Regina) = conditions: 10 g/L, three times at intervals of one week
Procedure: as §3

Mikan = conditions: dilution ratio 100 (10 g/L); 6 days after treatment
[4] = 10 g/L, 25° C., mass 100 g on date of application
[5] = approximately 3 weeks later (19 days later)

## O=C([O-])O.[K+] [Potassium hydrogen carbonate, potassium hydrogen carbonate]
[1]; 10 g/L
  decrease of mass of fruit in 8 days (June 2 to June 10): 27.3%
[1]; 10 g/L, 25° C.
  Sugar content (%) 8 days later, actually measured value: 24.0%
[1]; 10 g/L, 25° C., listed as potassium hydrogen carbonate
  Sugar content (%) 8 days later, actually measured value: 24%
[1]; [4]
  Mass (g) 6 days later (Jun. 8): 79.4 g
  Mass (g) 8 days later (Jun. 10): 72.7 g
[1]; 10 g/L, calculated from decrease in mass
  Sugar content (%) 8 days later, calculated value: 24.8%
[1]
  Sugar content (%) on date of application (Jun. 2): 18.0%
[1]; listed as potassium hydrogen carbonate
  Sugar content (%) on date of application (Jun. 2): 18%
[2]; 5 days later
  Estimated amount (g) of transpiration per 100 g of fruit on date of application: 17.4 g
[2]; 5 days later (applied Apr. 27)
  Mass (g) of fruit per 100 g of fruit on date of application: 82.6 g
[2]; 9 days later
  Estimated amount (g) of transpiration per 100 g of fruit on date of application: 29.5 g
  Mass (g) of fruit per 100 g of fruit on date of application: 70.5 g
[2]; 12 days later
  Estimated amount (g) of transpiration per 100 g of fruit on date of application: 37.2 g
  Mass (g) of fruit per 100 g of fruit on date of application: 62.8 g
[2]; 14 days later
  Estimated amount (g) of transpiration per 100 g of fruit on date of application: 42.6 g
  Mass (g) of fruit per 100 g of fruit on date of application: 57.4 g
[2]; 16 days later
  Estimated amount (g) of transpiration per 100 g of fruit on date of application: 47.9 g
  Mass (g) of fruit per 100 g of fruit on date of application: 52.1 g
[2]; 19 days later
  Estimated amount (g) of transpiration per 100 g of fruit on date of application: 55.3 g
  Mass (g) of fruit per 100 g of fruit on date of application: 44.7 g
[2]; [5]
  mass as % of the mass on the date of application: 44.7%
  ratio of transpiration of the fruit: 55.3%
Pinot noir; 5 g/L
  Acceptable ratio (%) of fruit: 75%
Pinot noir; 10 g/L
  Acceptable ratio (%) of fruit: 80%
Celery
  Degree of occurrence of calcium deficiency: 0.3
Lettuce (Great Lakes)
  Degree of occurrence of calcium deficiency: 0.2
Cherry (Sato Nishiki)
  Fruit cracking-suppression ratio: 98%
[3]; Nagano Purple
  Fruit cracking-suppression ratio: 97%
[3]; Riesling
  Fruit cracking-suppression ratio: 98%
Tomato (Regina)
  Fruit cracking-suppression ratio: 95%
Mikan
  Ratio (%) of decrease in body weight of fruit: 12.6%
